In patent US8129380B2, “Phthalazinone derivatives” (AstraZeneca AB, priority 2008, dated 2012):

Experiments:
HeLa cells = experiment: Potentiation Factor (PF50): MMS growth inhibition, SRB assay; assay type: cell-based; settings: MMS 0-10 μg/ml, ratio IC50 control / IC50 + inhibitor; for PF50 (30 nM): PARP inhibitor at 30 nM; for PF50 (200 nM): PARP inhibitor at 200 nM
Experimental: The Potentiation Factor (PF50) for compounds is calculated as a ratio of the IC50 of control cell growth divided by the IC50 of cell growth+PARP inhibitor. Growth inhibition curves for both control and compound treated cells are in the presence of the alkylating agent methyl methanesulfonate (MMS). The test compounds were used at a fixed concentration of 0.2 micromolar. The concentrations of MMS were over a range from 0 to 10 μg/ml.
2,000 HeLa cells were seeded into each well of a flat-bottomed 96-well microtiter plate in a volume of 100 μl and incubated for 6 hours at 37° C. Cells were either replaced with media alone or with media containing PARP inhibitor at a final concentration of 30 nM or 200 nM. […] Cells treated with PARP inhibitor alone were used to assess the growth inhibition by the PARP inhibitor.
Cells were left for a further 16 hours before replacing the media and allowing the cells to grow for a further 72 hours at 37° C. The media was then removed and the cells fixed with 100 μl of ice cold 10% (w/v) trichloroacetic acid. The plates were incubated at 4° C. for 20 minutes and then washed four times with water. Each well of cells was then stained with 100 μl of 0.4% (w/v) SRB in 1% acetic acid for 20 minutes before washing four times with 1% acetic acid. Plates were then dried for 2 hours at room temperature. The dye from the stained cells was solubilized by the addition of 100 μl of 10 mM Tris Base into each well.

[1] = biological target: T1, P-glycoprotein (KBA1 cells) (Homo sapiens, UniProt P08183); experiment: P-gp substrate activity, Dose Modification Ratio with/without Verapamil, SRB assay; assay type: in vitro ADME; settings: IC50 without Verapamil / IC50 with 20 μM Verapamil, 5 days
T1 construct: Cells from the Hela cell line known as KBA1, which expressed high P-glycoprotein; endogenous in cells; host or cells: KBA1 (HeLa-derived) cells; matched non-P-gp line KB31
T1 sequence (P08183 whole entry): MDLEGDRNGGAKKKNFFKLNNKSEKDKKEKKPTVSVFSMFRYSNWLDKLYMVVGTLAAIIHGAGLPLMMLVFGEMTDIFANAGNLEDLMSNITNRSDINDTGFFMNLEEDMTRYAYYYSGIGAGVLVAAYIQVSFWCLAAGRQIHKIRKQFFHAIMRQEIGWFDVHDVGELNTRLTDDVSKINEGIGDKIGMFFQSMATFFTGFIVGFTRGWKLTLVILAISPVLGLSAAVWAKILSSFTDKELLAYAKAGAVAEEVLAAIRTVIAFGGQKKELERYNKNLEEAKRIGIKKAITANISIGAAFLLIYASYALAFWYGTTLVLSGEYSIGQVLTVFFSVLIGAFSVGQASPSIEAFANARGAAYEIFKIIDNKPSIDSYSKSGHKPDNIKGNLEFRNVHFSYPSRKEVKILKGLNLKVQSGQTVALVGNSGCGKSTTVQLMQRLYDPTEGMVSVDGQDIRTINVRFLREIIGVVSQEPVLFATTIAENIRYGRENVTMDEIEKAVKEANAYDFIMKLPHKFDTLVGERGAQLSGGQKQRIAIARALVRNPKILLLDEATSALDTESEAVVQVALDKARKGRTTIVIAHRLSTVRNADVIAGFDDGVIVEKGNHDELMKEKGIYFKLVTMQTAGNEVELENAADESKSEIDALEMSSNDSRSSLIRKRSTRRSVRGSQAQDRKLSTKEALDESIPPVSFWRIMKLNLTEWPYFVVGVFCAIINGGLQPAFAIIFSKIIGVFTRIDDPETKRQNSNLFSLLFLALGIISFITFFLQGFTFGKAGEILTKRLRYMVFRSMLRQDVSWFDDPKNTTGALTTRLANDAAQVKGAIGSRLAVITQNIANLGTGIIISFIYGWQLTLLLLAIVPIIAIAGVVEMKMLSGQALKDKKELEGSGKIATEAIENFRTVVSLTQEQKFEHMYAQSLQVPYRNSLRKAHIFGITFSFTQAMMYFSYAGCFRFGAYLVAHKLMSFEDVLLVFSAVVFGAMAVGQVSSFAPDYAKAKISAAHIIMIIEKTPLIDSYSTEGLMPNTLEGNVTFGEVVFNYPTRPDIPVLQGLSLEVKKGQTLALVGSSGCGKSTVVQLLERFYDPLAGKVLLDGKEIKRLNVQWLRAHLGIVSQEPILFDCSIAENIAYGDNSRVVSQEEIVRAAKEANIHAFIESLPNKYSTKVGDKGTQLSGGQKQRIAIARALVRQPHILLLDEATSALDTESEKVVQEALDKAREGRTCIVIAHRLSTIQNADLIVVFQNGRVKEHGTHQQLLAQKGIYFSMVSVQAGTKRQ
Experimental: Cells from the Hela cell line known as KBA1, which expressed high P-glycoprotein (ABC1a and ABC1b transporter glycoproteins also known as MDR1a and MDR1b) and the matched non-P-glycoprotein expressing line known as KB31, were seeded onto 96 well tissue culture plates with 80 μl per well of 1.00×10^4 cells/ml=800 cells/well [DMEM, 10% FBS, PSG] and left to adhere for 4 hours. After the incubation period 10 μl per well of 200 μM Verapamil (giving a final conc. of 20 μM) a known inhibitor of P-gp or vehicle media were added to various wells of the cell plates. The 96 well plates were left in the incubator for 1 hour prior to 10 μl of test compound (or the known substrate Etoposide as a reference control) or 10 μl PBS/1% DMSO vehicle (control wells) being added into either Verapamil containing or media control wells. […]
The cell plates were then incubated for 5 days prior to cell growth being assessed using the Sulforhodamine B (SRB) assay as described previously. The P-gp substrate activity for each compound was calculated using the cell growth activity of the tests compounds on the KBA1 cells in the presence or absence (control wells) of Verapamil. The Dose Modification Ratio (DMR) is calculated from the KBA1 where for each test compound a ratio of the IC50 of the compound in the absence of Verapamil is divided by the IC50 of cell growth in the presence of Verapamil. […]

[2] = Solubility in 0.1 M phosphate buffer; assay type: physicochemical; settings: pH 7.4, 24 hours, 25° C.
Experimental: The solubility of the test compounds was measured following a method described in Leach, A., et al., J Med Chem (2006), 49(23), 6672-6682:
Solubility values are determined from agitation of compounds in 0.1 M phosphate buffer at pH 7.4 for 24 hours at 25° C. The supernatant is separated from undissolved material by double centrifugation and subsequently analysed and quantified against a standard of known concentration in DMSO using generic HPLC-UV methodology coupled with mass spectral peak identification.

Structure (SMILES)	PF50 (30 nM) (HeLa cells)	PF50 (200 nM) (HeLa cells)	Dose Modification Ratio (DMR) [1]	solubility [2]
COC1CCN(C(=O)c2cc(Cc3n[nH]c(=O)c4ccccc34)ccc2F)CC1 [Compound 2b, 4-(4-fluoro-3-(4-methoxypiperidine-1-carbonyl)benzyl)phthalazin-1(2H)-one]	3.0	15	1.3	1070 µmol
CCOC1CCN(C(=O)c2cc(Cc3n[nH]c(=O)c4ccccc34)ccc2F)CC1 [Compound 2f, 4-(3-(4-ethoxypiperidine-1-carbonyl)-4-fluorobenzyl)phthalazin-1(2H)-one]	14.1	25	1.0	211 µmol
CCOC1CCN(C(=O)c2cc(Cc3n[nH]c(=O)c4cccc(OC)c34)ccc2F)CC1 [Compound 126b, 4-(3-(4-ethoxypiperidine-1-carbonyl)-4-fluorobenzyl)-5-methoxyphthalazin-1(2H)-one]	7.4	–	–	–
CCOC1CCN(C(=O)c2cc(F)cc(Cc3n[nH]c(=O)c4cccc(Cl)c34)c2)CC1 [Compound 129a, 5-chloro-4-(3-(4-ethoxypiperidine-1-carbonyl)-5-fluorobenzyl)phthalazin-1(2H)-one]	1.0	–	–	–
